According to PMC6467784 (Journal of medicinal chemistry, 2019):
Several values for one entry are separate records, joined by “and”; a condition that tells them apart may be missing. Equal values may be shown once. Read-outs that look alike come from different tables or passages of the source.

Assays:
wild-type C57BL/6J mice [1] = settings: average from dosing to 60 min, ref [30], cited from earlier work
A1AR, A3AR [2] = settings: ref [30]; cited from earlier work
[3] = system: off-target receptors and transporters; test: PDSP off-target screen; format: binding, human
bovine A1AR = settings: read-out: Ki at bovine A1AR; ref [36],[37]; cited from earlier work
hA2BAR = molecular target: T1, hA2BAR (Homo sapiens, UniProt P29275); test: hA2BAR radioligand binding using [3H]54; settings: for inhibition at 10 µM: read-out: hA2BAR % binding inhibition at 10 μM
T1 sequence (P29275 1-332): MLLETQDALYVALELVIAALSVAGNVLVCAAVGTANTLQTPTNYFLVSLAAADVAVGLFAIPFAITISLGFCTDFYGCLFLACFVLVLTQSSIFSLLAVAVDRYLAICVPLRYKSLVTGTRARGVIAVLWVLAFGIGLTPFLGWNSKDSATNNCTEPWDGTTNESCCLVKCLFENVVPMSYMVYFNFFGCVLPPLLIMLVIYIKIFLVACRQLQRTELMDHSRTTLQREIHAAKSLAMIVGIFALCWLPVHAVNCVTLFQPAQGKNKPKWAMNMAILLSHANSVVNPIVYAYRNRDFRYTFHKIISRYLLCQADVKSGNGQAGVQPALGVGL

hA1AR [4] = molecular target: T2, hA1AR (Homo sapiens, UniProt P30542); test: hA1AR radioligand binding, CHO cell membranes; settings: for hA1AR selectivity compared to hA3AR: ratio of binding Ki
T2 sequence (P30542 1-326): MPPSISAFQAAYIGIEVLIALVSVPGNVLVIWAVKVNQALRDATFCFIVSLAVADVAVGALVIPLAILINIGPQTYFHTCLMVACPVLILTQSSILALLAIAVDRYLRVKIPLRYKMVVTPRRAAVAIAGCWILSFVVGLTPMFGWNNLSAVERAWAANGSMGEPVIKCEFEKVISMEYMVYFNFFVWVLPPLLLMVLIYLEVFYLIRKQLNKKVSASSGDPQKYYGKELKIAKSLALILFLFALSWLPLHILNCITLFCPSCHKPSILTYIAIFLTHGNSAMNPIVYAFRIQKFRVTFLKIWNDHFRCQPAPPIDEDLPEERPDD

mA1AR = molecular target: T3, mA1AR (Mus musculus, UniProt Q60612); test: mA1AR radioligand binding; settings: ratio of binding Ki
T3 sequence (Q60612 1-326): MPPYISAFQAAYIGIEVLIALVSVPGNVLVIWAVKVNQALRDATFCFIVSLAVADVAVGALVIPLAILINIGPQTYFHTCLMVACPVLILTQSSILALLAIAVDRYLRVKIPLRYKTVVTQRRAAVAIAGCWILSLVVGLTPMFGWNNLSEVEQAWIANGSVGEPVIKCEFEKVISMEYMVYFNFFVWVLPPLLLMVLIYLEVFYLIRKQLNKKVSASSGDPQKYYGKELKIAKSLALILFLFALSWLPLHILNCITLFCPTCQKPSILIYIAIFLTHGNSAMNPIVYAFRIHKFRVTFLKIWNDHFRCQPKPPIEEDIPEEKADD

wild-type C57BL/6J mice [5] = test: Body temperature and locomotor activity by telemetry after ip. dosing; format: in vivo, mouse; settings: for Effect on Tb in WT mice: ip., up to 3 or 10 mg/kg; for Tb: 3 mg/kg ip., average from dosing to 60 min, mean ±SD
Stability in rat plasma = format: in vitro ADME
HEP-G2 hepatocytes = test: Toxicity in HEP-G2 hepatocytes; format: cell-based
hCYP P450 2C9 = hCYP P450 2C9 (Homo sapiens, UniProt P11712); test: CYP 2C9 inhibition; format: in vitro ADME
Chain of hCYP P450 2C9 (P11712 whole entry): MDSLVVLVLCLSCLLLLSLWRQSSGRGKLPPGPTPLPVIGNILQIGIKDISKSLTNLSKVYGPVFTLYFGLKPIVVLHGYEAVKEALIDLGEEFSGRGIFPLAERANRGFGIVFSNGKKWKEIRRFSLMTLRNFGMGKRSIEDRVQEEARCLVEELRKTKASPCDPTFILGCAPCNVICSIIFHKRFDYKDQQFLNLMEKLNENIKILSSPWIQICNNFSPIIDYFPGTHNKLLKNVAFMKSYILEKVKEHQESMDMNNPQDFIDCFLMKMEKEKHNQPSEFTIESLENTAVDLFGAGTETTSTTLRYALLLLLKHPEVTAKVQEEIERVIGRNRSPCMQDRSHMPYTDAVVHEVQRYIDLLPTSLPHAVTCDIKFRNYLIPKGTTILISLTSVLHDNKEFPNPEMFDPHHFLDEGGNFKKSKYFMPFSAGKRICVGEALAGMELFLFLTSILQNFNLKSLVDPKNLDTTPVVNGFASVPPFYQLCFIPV

hCYP P450 2D6 = hCYP P450 2D6 (Homo sapiens, UniProt P10635); test: CYP 2D6 inhibition; format: in vitro ADME
Chain of hCYP P450 2D6 (P10635 whole entry): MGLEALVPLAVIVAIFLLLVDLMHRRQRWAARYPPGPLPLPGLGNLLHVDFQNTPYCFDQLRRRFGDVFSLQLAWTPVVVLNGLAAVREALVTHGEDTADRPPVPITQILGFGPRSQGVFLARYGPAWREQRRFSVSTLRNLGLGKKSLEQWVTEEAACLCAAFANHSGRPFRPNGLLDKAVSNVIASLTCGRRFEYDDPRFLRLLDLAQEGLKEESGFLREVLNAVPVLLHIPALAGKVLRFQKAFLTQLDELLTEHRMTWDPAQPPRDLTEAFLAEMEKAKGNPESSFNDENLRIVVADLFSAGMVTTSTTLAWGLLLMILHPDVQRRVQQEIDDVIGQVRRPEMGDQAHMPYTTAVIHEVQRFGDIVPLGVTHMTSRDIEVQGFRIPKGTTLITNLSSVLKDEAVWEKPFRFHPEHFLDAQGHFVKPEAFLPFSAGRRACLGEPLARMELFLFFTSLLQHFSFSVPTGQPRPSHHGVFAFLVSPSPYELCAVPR

[6] = Stability in human plasma; format: in vitro ADME; settings: human (h)
Rat liver microsomes = format: in vitro ADME
[7] = Stability in mouse plasma; format: in vitro ADME; settings: mouse (m)
1A2 CYP isozyme = 1A2 CYP isozyme (Homo sapiens, UniProt P05177); test: CYP 1A2 inhibition; format: in vitro ADME
Chain of 1A2 CYP isozyme (P05177 whole entry): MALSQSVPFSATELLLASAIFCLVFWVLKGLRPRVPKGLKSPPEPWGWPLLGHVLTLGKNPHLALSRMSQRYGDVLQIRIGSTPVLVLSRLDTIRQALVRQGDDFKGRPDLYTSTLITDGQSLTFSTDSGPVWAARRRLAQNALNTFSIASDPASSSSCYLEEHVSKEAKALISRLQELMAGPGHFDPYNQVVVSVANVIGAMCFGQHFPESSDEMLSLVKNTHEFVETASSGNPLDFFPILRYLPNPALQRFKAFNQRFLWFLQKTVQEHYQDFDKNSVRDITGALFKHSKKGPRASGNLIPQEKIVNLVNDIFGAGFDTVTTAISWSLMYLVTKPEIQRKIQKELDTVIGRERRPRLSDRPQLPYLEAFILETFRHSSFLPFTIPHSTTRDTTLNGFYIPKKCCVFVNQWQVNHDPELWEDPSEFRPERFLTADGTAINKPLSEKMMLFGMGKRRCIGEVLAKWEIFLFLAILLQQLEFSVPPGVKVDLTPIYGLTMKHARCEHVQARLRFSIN

2C19 CYP isozyme = 2C19 CYP isozyme (Homo sapiens, UniProt P33261); test: CYP 2C19 inhibition; format: in vitro ADME
Chain of 2C19 CYP isozyme (P33261 whole entry): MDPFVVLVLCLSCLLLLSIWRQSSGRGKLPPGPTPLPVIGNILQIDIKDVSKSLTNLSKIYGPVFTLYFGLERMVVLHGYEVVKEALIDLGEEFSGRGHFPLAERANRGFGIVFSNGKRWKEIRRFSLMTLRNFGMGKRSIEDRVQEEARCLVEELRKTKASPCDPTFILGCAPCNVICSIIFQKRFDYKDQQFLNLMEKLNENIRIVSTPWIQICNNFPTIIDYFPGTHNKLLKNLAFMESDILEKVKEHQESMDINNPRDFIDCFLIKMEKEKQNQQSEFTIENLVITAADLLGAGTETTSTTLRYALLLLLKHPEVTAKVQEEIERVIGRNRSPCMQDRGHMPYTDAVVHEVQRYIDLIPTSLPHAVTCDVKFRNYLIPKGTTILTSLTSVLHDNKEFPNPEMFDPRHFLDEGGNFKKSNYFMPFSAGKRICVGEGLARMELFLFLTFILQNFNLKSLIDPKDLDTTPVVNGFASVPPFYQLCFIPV

hCYP P450 3A4 = hCYP P450 3A4 (Homo sapiens, UniProt P08684); test: CYP 3A4 inhibition; format: in vitro ADME
Chain of hCYP P450 3A4 (P08684 whole entry): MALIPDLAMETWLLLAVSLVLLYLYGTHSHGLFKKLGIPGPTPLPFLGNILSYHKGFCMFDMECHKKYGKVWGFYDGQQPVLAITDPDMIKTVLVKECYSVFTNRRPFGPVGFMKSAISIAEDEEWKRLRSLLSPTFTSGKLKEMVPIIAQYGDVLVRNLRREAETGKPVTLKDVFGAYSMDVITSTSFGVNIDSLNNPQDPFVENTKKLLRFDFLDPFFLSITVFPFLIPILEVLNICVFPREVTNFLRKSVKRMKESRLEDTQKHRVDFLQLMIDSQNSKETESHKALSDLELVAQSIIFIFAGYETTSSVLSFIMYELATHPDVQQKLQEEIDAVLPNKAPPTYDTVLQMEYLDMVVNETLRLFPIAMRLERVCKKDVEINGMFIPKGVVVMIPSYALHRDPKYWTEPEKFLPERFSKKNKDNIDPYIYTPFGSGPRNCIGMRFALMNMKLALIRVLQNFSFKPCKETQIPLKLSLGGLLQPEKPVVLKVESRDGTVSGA

A1AR, A3AR [8] = test: Hypothermia in A1AR, A3AR and A1AR/A3AR deficient mice; format: in vivo, mouse; settings: 3 mg/kg ip.; for Receptor dependence of hypothermia: A1AR KO, A3AR KO, double KO mice; for ARs causing hypothermia: WT vs AR-KO mice (Figure 2)
[9] = Stability in simulated gastric fluid; format: in vitro ADME
Human liver microsomes = format: in vitro ADME; settings: human
Mouse liver microsomes = format: in vitro ADME
[10] = Pharmacokinetics in the male rat; format: in vivo; settings: 3 mg/kg p.o.
[11] = Stability in simulated intestinal fluid; format: in vitro ADME
CACO-2 cells = test: CACO-2 permeability and efflux; format: in vitro ADME
mice = test: Hypothermia after intracerebroventricular infusion; format: in vivo, mouse; settings: for Tb reached after icv. administration: 5 μg injected icv. (equivalent to […])
hA1AR [12] = molecular target: T2, hA1AR; settings: human (h); at 10 μM; ref [33],[34]; cited from earlier work
anesthetized rat = test: Cardiovascular effects in the anesthetized rat; format: in vivo; settings: 0.02 mg/kg, iv., preliminary

In the case of OC[C@H]1O[C@@H](n2cnc3c(NC4CCCC4)ncnc32)[C@H](O)[C@@H]1O [Compound 1a], the Tb (wild-type C57BL/6J mice [1]; 1 mg/kg ip.) is given as 32.4±0.5 °C and the ARs causing hypothermia (A1AR, A3AR [2]) is given as “A3AR > A1AR[30]”.
For OC[C@@]12C[C@@H]1[C@@H](n1cnc3c(N[C@H]4C[C@H]5CC[C@@H]4C5)nc(Cl)cc31)[C@H](O)[C@@H]2O [Compound 30], the “Off-target, receptor: interactions found” value [3] was “none”.
For NC(=O)c1ncn([C@@H]2O[C@H](CO)[C@@H](O)[C@H]2O)n1 [Compound 38, ribavirin, reference compound], the Ki (bovine A1AR) is listed as 86 µM and the inhibition at 10 µM (hA2BAR) is listed as 39%.
For O[C@H]1[C@H](n2cnc3c(NC(C4CCC4)C4CCC4)ncnc32)[C@H]2C[C@@]2(CCl)[C@H]1O [Compound 26, (1S,2R,3S,4R,5S)-1-(Chloromethyl)-4-(6-((dicyclobutylmethyl)amino)-9H-purin-9-yl)bicyclo[3.1.0]hexane-2,3-diol], the “hA1AR selectivity compared to hA3AR” value (hA1AR [4]) was ~ 300 fold and the “mA1AR selectivity compared to mA3AR” value (mA1AR) was 890 fold.
In the case of Nc1nc(Cl)nc2c1ncn2[C@H]1[C@H](O)[C@H](O)[C@]2(CCl)C[C@H]12 [Compound 22], the “hA1AR affinity relative to 21” value (hA1AR [4]; higher affinity than parent 21) is reported as 14 fold.
In the case of NC(=O)c1ncn([C@H]2[C@H](O)[C@H](O)[C@]3(CO)C[C@H]23)n1 [Compound 40], the “hA1AR affinity relative to 38” value (hA1AR [4]; greater affinity than riboside 38) is reported as 15 fold and the “mA1AR selectivity compared to mA3AR” value (mA1AR) is reported as 25.2 nM (~400) fold.
In the case of O[C@H]1[C@H](n2cnc3c(N[C@H]4C[C@H]5CC[C@@H]4C5)nc(Cl)nc32)[C@H]2C[C@@]2(CCl)[C@H]1O [Compound 31, (1S,2R,3S,4R,5S)-4-(6-(((1R,2S,4S)-Bicyclo[2.2.1]heptan-2-yl)amino)-2-chloro-9H-purin-9-yl)-1-(chloromethyl)bicyclo[3.1.0]hexane-2,3-diol], the “Off-target, receptor: interactions found” value [3] is reported as “none”, the “Effect on Tb in WT mice” value (wild-type C57BL/6J mice [5]) is reported as “did not significantly induce hypothermia” and the “hA1AR selectivity compared to hA3AR” value (hA1AR [4]) is reported as 10 fold.
In the case of OC[C@H]1O[C@@H](n2cnc3c(NC(C4CCC4)C4CCC4)ncnc32)[C@H](O)C1O (stereo in doubt) [Compound 9, (2R,3R,4R,5R)-2-(6-((Dicyclobutylmethyl)amino)-9H-purin-9-yl)-5-(hydroxymethyl)tetrahydrofuran-3,4-diol], the Stability in plasma (Stability in rat plasma) is reported as “completely stable”, the “Toxicity in HEP-G2 hepatocytes” value (HEP-G2 hepatocytes) is reported as “nontoxic” and the “Inhibition of 2C9 CYP isozyme” value (hCYP P450 2C9) is reported as “weak inhibition”. The “Inhibition of 2D6 CYP isozyme” value (hCYP P450 2D6) was “no inhibition”, the Stability in plasma [6] was “completely stable” and the Ki (hA2BAR) was 8.62 µM. For the same compound, the Tb (wild-type C57BL/6J mice [5]) was 33.0±0.7 °C, the “Effect on Tb in WT mice” value (wild-type C57BL/6J mice [5]) was “produced hypothermia and hypoactivity” and the “Clearance in liver microsomes” value (Rat liver microsomes) was “medium clearance”. The Stability in plasma [7] was “completely stable”, the “Inhibition of 1A2 CYP isozyme” value (1A2 CYP isozyme) was “no inhibition” and the “Inhibition of 2C19 CYP isozyme” value (2C19 CYP isozyme) was “no inhibition”. The “Inhibition of 3A4 CYP isozyme” value (hCYP P450 3A4) was “no inhibition”, the “Receptor dependence of hypothermia” value (A1AR, A3AR [8]) was “dependent on A1AR, without a contribution from A3AR” and the ARs causing hypothermia (A1AR, A3AR [8]) was “A1AR selective (Figure 2)”. For the same compound, the “Stability in simulated gastric fluid” value [9] was “completely stable”, the “Clearance in liver microsomes” value (Human liver microsomes) was “medium clearance” and the “Clearance in liver microsomes” value (Mouse liver microsomes) was “medium clearance”. The “maximal concentration, molar” value [10] was 310 nM, the “Stability in simulated intestinal fluid” value [11] was “completely stable” and the “Permeability in CACO-2 cells” value (CACO-2 cells) was “high permeability”. The “Duration of hypothermia after icv. administration” value (mice; 1.67 μg/mouse icv. (= […])) was ~ 10 h, the “Effect on Tb after icv. administration” value (mice; 1.67 μg/mouse icv. (= […])) was “deep hypothermia” and the “Tb reached after icv. administration” value (mice) was ~ 24 °C.
In the case of OC[C@@]12C[C@@H]1[C@@H](n1cnc3c(NC(C4CCC4)C4CCC4)ncnc31)[C@H](O)[C@@H]2O [Compound 24, (1R,2R,3S,4R,5S)-4-(6-((Dicyclobutylmethyl)amino)-9H-purin-9-yl)-1-(hydroxymethyl)bicyclo[3.1.0]hexane-2,3-diol], the A1AR selectivity (hA1AR [4]; abstract, species and comparator not stated) is reported as ~ 400 fold, the “Effect on Tb after icv. administration” value (mice; 1.67 μg/mouse icv. (= […])) is reported as “reduced Tb only slightly” and the “Tb reached after icv. administration” value (mice) is reported as ~ 24 °C.
With CNC(=O)[C@H]1O[C@@H](n2cnc3c(N)ncnc32)[C@H](O)[C@@H]1O [Compound 15, reference compound] the “Off-target, receptor: interactions found” value [3] was “none”.
For O[C@@H]1[C@H](O)[C@@H]2C[C@@H]2[C@H]1n1cnc2c(NC(C3CCCC3)C3CCCC3)nc(Cl)nc21 [Compound 20], the A1AR % inhibition (hA1AR [12]) is given as 34±3% (h).
Compound O[C@@H]1[C@H](O)[C@@H]2C[C@@H]2[C@H]1n1cnc2c(NC(C3CCC3)C3CCC3)nc(Cl)nc21 [Compound 19] has an inhibition at 10 µM (hA2BAR) of 24%.
With OC[C@H]1O[C@@H](n2cnc3c(NC4CCCC4)nc(Cl)nc32)[C@H](O)[C@@H]1O [Compound 2] the “Effect on blood pressure” value (anesthetized rat) was “sustained rise in blood pressure”.
For OC[C@H]1O[C@@H](n2cnc3c(NC(C4CCC4)C4CCC4)nc(Cl)nc32)[C@H](O)C1O (stereo in doubt) [Compound 12, (2R,3R,4R,5R)-2-(2-Chloro-6-((dicyclobutylmethyl)amino)-9H-purin-9-yl)-5-(hydroxymethyl)tetrahydrofuran-3,4-diol], the Tb (wild-type C57BL/6J mice [5]) was 35.5±0.8 °C, the “hA1AR affinity relative to 9” value (hA1AR [4]; lower affinity than 9) was 8 fold and the “hA1AR selectivity compared to hA3AR” value (hA1AR [4]) was 742 fold.
For CCNC(=O)[C@H]1O[C@@H](n2cnc3c(N)ncnc32)[C@H](O)[C@@H]1O [Compound 16, reference compound], the “Off-target, receptor: interactions found” value [3] was “none”.
In the case of CCOC(=O)[C@@]12C[C@@H]1[C@@H](n1cnc3c(NC(C4CCC4)C4CCC4)nc(Cl)nc31)[C@H](O)[C@@H]2O [Compound 35], the inhibition at 10 µM (hA2BAR) is reported as 38%.
For O[C@@H]1[C@H](O)[C@@H](CCl)O[C@H]1n1cnc2c(NC3C[C@H]4CC[C@@H]3C4)ncnc21 (stereo partly drawn) [Compound 4], the Tb (wild-type C57BL/6J mice [1]; 3 mg/kg ip.) is listed as 32.2±1.3 °C and the ARs causing hypothermia (A1AR, A3AR [2]) is listed as “A1AR > A3AR[30]”.
In the case of O[C@@H]1[C@H](O)[C@@H](CCl)O[C@H]1n1cnc2c(NC(C3CCC3)C3CCC3)ncnc21 [Compound 10, (2S,3S,4R,5R)-2-(Chloromethyl)-5-(6-((dicyclobutylmethyl)amino)-9H-purin-9-yl)tetrahydrofuran-3,4-diol], the “hA1AR selectivity compared to hA3AR” value (hA1AR [4]) is reported as 3390 fold and the “mA1AR selectivity compared to mA3AR” value (mA1AR) is reported as 2970 fold and > 2000 fold.
For OC[C@@]12C[C@@H]1[C@@H](n1cnc3c(N[C@H]4C[C@H]5CC[C@@H]4C5)nc(Cl)nc31)[C@H](O)[C@@H]2O [Compound 29, (1R,2R,3S,4R,5S)-4-(6-(((1R,2S,4S)-Bicyclo[2.2.1]heptan-2-yl)amino)-2-chloro-9H-purin-9-yl)-1-(hydroxymethyl)bicyclo[3.1.0]hexane-2,3-diol], the “Effect on Tb in WT mice” value (wild-type C57BL/6J mice [5]) was “hypothermic effect”, the “Receptor dependence of hypothermia” value (A1AR, A3AR [8]) was “via both central A1AR and peripheral A3AR” and the ARs causing hypothermia (A1AR, A3AR [8]) was “A3AR > A1AR (Figure 2)”. The “hA1AR selectivity compared to hA3AR” value (hA1AR [4]) was 12 fold.
